For data set [1] the following is noted: I = 0.05 (KCl); cited from earlier work.
Another data set has as its system I172A mutant TbbTIM. In words: Competitive inhibition of TIM-catalyzed isomerization of GAP by phosphoglycolate. Conditions: pH < 6. Type of data set: biochemical, Trypanosoma brucei brucei.
The target of data set [2] is wildtype TbbTIM (triosephosphate isomerase) (Trypanosoma brucei brucei, UniProt P04789). Described as above. Type of data set: biochemical. The conditions noted are these: relative to 14 kcal/mol estimated for GAP.
The next data set has as its target L232A mutant TbbTIM (Trypanosoma brucei brucei, UniProt P04789, L232A). The description is as above. Format: biochemical.

A word on the Ki: it is a measure of affinity in units of concentration, obtained from inhibition or displacement. On to `O=C(O)COP(=O)(O)O` [PGA, Phosphoglycolate], for which the “pKa for ionization of HI^2− to form I^3−” value in data set [1] is listed as 6.5. For the same molecule, in the data set on I172A mutant TbbTIM, the “fold lower affinity of the mutant compared with the wildtype enzyme for I^3−” value turned out to be 100 fold. In data set [2], the “fraction of the total intrinsic transition state binding energy for TIM expressed” value is on record as ~ 80%. Moreover, on L232A mutant TbbTIM (pH 8.3, relative to wildtype), the “fold increase in the affinity of the enzyme for I^3− from the L232A mutation” value is given as 20 fold. Moreover, the Ki on L232A mutant TbbTIM (read-out: Ki for inhibition by PGA trianion I^3−, pH 8.3, 25 °C, I = 0.1 (NaCl)) came to 12 µM.

These data come from publication PMC3649849 (Journal of the American Chemical Society, 2013).
